# Experimental data taken from paper PMC5806375, “Characterization and expression analysis of a newly identified glutathione S-transferase of the hard tick Haemaphysalis longicornis during blood-feeding” (Parasites & Vectors, 2018).
# Experiments:
# [1] = biological target: T1, HlGST (recombinant HlGST, rHlGST) (Haemaphysalis longicornis, UniProt Q6JVN0); assay: absorbance at […] nm, Lineweaver-Burk plot; type: biochemical; settings: 5 mM GSH, CDNB 0.125-2 mM, 100 mM Tris-HCl pH 7.5, 25 °C, 5% methanol; read-out: CDNB kinetic constant^a
# T1 construct: gene GST
# T1 sequence (Q6JVN0 1-223): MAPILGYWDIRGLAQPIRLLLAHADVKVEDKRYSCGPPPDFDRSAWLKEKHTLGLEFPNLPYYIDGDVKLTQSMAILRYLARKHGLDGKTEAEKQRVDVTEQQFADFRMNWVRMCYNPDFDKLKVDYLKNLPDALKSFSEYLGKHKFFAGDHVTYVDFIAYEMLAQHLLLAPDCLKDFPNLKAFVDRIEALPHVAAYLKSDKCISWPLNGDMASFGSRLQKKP
# [2] = biological target: T2, HlGST2 (recombinant HlGST2, rHlGST2) (Haemaphysalis longicornis, UniProt A0A2Z6FA39); assay: absorbance at […] nm, Lineweaver-Burk plot; type: biochemical; settings: 5 mM GSH, CDNB 0.125-2 mM, 100 mM Tris-HCl pH 7.5, 25 °C, 5% methanol; read-out: CDNB kinetic constant^a
# T2 construct: gene GST
# T2 sequence (A0A2Z6FA39 1-230): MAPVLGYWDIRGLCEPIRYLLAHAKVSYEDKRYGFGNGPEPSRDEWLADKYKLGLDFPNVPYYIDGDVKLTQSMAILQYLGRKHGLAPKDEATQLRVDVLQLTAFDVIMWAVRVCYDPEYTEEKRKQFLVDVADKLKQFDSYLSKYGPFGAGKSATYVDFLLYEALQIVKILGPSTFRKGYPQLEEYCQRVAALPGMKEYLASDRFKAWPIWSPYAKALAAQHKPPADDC
smiles,measurement,setting,value
"O=[N+]([O-])c1ccc(Cl)c([N+](=O)[O-])c1 [CDNB, 1-chloro-2,4-dinitrobenzene]",Km,[1],820 ± 140 µM
same,Km,[2],610 ± 200 µM
